No end group written: not given here.
Experiments:
Assay type in all cases: biochemical
[1] = system: Conus γ-glutamyl carboxylase (Conus radiatus venom duct microsomes); settings: for Km: read-out: apparent Km; for IC50: read-out: apparent IC50
[2] = system: Conus γ-carboxylase
[3] = target: T1, bovine microsomal γ-glutamyl carboxylase (Bos taurus, UniProt Q07175)
T1 construct: For experiments with bovine microsomes, 380 μg of microsomal protein was present in each reaction; from tissue; host or cells: bovine microsomes, gift of Dr. D. W. Stafford
T1 sequence (Q07175 1-758): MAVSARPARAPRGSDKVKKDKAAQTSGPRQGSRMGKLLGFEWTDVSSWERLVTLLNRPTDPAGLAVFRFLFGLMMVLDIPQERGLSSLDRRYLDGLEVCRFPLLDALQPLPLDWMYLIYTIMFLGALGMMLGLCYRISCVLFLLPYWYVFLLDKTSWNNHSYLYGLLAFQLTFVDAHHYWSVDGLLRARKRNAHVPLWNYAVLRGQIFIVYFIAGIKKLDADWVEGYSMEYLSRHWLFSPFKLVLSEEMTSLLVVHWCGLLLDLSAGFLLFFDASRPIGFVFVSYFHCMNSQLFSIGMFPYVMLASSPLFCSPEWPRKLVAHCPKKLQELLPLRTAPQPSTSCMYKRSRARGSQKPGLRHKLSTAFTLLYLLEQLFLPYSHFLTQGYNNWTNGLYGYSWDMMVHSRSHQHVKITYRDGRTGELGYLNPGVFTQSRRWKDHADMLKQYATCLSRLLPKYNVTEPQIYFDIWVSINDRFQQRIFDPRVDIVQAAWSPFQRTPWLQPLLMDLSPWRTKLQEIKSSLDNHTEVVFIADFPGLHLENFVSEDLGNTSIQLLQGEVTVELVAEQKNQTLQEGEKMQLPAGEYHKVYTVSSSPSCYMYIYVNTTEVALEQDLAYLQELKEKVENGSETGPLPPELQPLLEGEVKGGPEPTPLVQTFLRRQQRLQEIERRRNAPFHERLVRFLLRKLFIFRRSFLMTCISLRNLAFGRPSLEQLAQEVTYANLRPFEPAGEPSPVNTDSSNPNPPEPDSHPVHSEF

## ILKQRGNKARGEEELQENQELIREKSN-NH2 [-10.Pro-E.Con-G]
[1]
  Km: 1840 ± 109 µM

## GKDRLTQMKRILKQRGNKARGEEELQENQELIREKSN-NH2 [-20.Pro-E.Con-G]
[2]
  Glu residues carboxylated (Gla analysis of reaction product): Glu2 was not carboxylated. The rest of the Glu residues were carboxylated, although Glu14 was not efficiently carboxylated
[1]
  pmol 14CO2 Incorporated: 2741 pmol
  substrate quality for γ-carboxylation, Conus enzyme: excellent substrate
  Km: 28 ± 3 µM
[3]
  pmol 14CO2 Incorporated: 3 pmol
  substrate quality for γ-carboxylation, mammalian enzyme: extremely poor

## ALKAEPVLLQKSAARSTDDN [Pro (-40 to -21)]
[1]
  effect on the carboxylation of FLEEL or E.ConG: no effect
  inhibition of carboxylation of -10.Pro-E.Con-G: did not inhibit
  IC50: > 1000 µM

## GKDRLTQMKRILKQRGNKARFLEEL-NH2 [-20.Pro-FLEEL]
[1]
  Km: 4 µM

## FLEEL [reference compound]
[1]
  pmol 14CO2 Incorporated: 818 pmol
  Km: 301 ± 6 µM
[3]
  pmol 14CO2 Incorporated: 249 pmol

## GTGTLDDGGALTERRSADAT [Pro (-60 to -41)]
[1]
  effect on the carboxylation of FLEEL or E.ConG: no effect
  inhibition of carboxylation of -10.Pro-E.Con-G: did not inhibit
  IC50: > 1000 µM

## KSAARSTDDNGKDRLTQMKRILKQRGNKAR [Pro (-30 to -1)]
[1]
  IC50: 200 µM

From patent publication US6197535A, “Methods for purifying and assaying a conus γ-carboxylase” (University of Utah Research Foundation, priority 1999, dated 2001)
